≈ marks a conversion by molar mass, not a printed value. Where “and” joins values, the source holds several entries; their conditions need not be identical. Equal entries are not always repeated. Where two headings read alike, the source gives them in different places.
Experiments:
[1] = test system: P. falciparum D10 (CQ-sensitive) strain; assay: P. falciparum drug susceptibility assay (pLDH), D10 strain; assay type: cell-based, Plasmodium falciparum; settings: for IC50: Plasmodium falciparum, read-out: P. falciparum IC50 D10; for SI D10: SI = IC50 HaCaT/IC50 P. falciparum strain
Procedure: Plasmodium falciparum cultures were carried out according to Trager and Jensen, with slight modifications. […] Drugs were placed in 96-well flat-bottomed microplates starting from the concentration of 20 µg/mL and 8 serial two-fold dilutions were made. […] Parasite growth was determined spectrophotometrically (OD650) by measuring the activity of the parasite lactate dehydrogenase (pLDH), according to a modified version of the method of Makler in control and drug-treated cultures.

[2] = test system: P. falciparum W2 (CQ-resistant) strain; assay: P. falciparum drug susceptibility assay (pLDH), W2 strain; assay type: cell-based, Plasmodium falciparum; settings: for IC50: Plasmodium falciparum, read-out: P. falciparum IC50 W2; for RI: RI = IC50 CQ resistant P. falciparum strain/IC50 CQ sensitive P. falciparum strain; for SI W2: SI = IC50 HaCaT/IC50 P. falciparum strain
Procedure: Plasmodium falciparum cultures were carried out according to Trager and Jensen, with slight modifications. The CQ-susceptible strain D10 and the CQ-resistant strain W2 were maintained at 5% hematocrit (human type A-positive red blood cells) in RPMI 1640 (EuroClone, Milan, Italy) medium with the addition of 1% AlbuMax (Invitrogen, Milan, Italy), 0.01% hypoxanthine, 20 mM Hepes, and 2 mM glutamine. All the cultures were maintained at 37 °C in a standard gas mixture consisting of 1% O2, 5% CO2, and 94% N2. Compounds were dissolved in DMSO and then diluted with medium to achieve the required concentrations (final DMSO concentration < 1%, which is non-toxic to the parasite). Drugs were placed in 96-well flat-bottomed microplates starting from the concentration of 20 µg/mL and 8 serial two-fold dilutions were made. Asynchronous cultures with parasitaemia of 1–1.5% and 1% final hematocrit were aliquoted into the plates and incubated for 72 h at 37 °C. Parasite growth was determined spectrophotometrically (OD650) by measuring the activity of the parasite lactate dehydrogenase (pLDH), according to a modified version of the method of Makler in control and drug-treated cultures. The antimalarial activity is expressed as 50% inhibitory concentrations (IC50); […]

HaCaT cells = assay: Cytotoxicity assay (MTT) on HaCaT cells; assay type: cell-based; settings: Homo sapiens, 48 h
Procedure: HaCaT cells were cultured in DMEM medium with 10% FBS, GlutaMAX™ and antibiotic-antimycotic. Cells were cultured at 37 °C in a humidified atmosphere containing 5% CO2. To evaluate the cytotoxic activity of tested compounds, the MTT assay was used. Cells (5 × 10^3 cells/well) were plated into a 96-multiwell plate and incubated for 24 h, to grow as monolayers. Subsequently, different doses of compounds dissolved in DMSO were added to each well and mixed. Plates were then incubated for 48 h. The culture media with tested samples were then removed, and cells in each well were treated with 50 μL of complete culture medium with MTT. After 4 h of incubation in a cell culture incubator, MTT solution was replaced with DMSO (50 μL/well) and plates were agitated for 5 min to dissolve the formazan salts. Formazan absorbance was measured at 570 nm, with background measured at 630 nm, using an Asys UVM 340 Microplate Reader (Cambridge, UK). Results were expressed as IC50 values, with respect to the control (not treated cells).

[3] = test system: FcM29-Cameroon, a high chloroquine-resistant strain of P. falciparum; set-up: method as in PMID 21612900; settings: cited from earlier work
Hemolysis assay = assay type: cell-based; settings: human erythrocyte suspension, fresh human erythrocytes
Procedure: The study protocol was approved by the Bioethics Commission at the Lower Silesian Medical Chamber (1/PNHAB/2018). Hemolytic activity was estimated by the measurement of hemoglobin release from human erythrocyte suspensions after incubation with (5), (6), (7) and (8), as previously described. Compouds dissolved in DMSO were added in a volume corresponding to a final concentration of 20 µg/mL in the sample (DMSO was added in an identical volume). Negative and positive controls were also determined. Hemolysis (H) was calculated according to the following formula:H (%) = [(Asample − Anegative control)/(Apositive control − Anegative control)] × 100(1) where Asample, Anegative control, and Apositive control represent the absorbances of the sample, and negative (erythrocytes in PBS buffer) and positive (erythrocytes in distilled water) controls, respectively.

Solubility in water = assay type: physicochemical; settings: statement in words
[4] = test system: Plasmodium falciparum 3D7; set-up: method as in PMID 25797165; settings: read-out: IC50 against Plasmodium falciparum 3D7; cited from earlier work
[5] = test system: chloroquine-resistant Dd2 strain; set-up: method as in PMID 25797165; settings: compared with 3D7; cited from earlier work
W2 strain = test system: W2 strain; set-up: method as in PMID 16190773; settings: cited from earlier work
[6] = D10 (CQ-sensitive), 72 h, pLDH, IC50 expressed in µM
[7] = W2 (CQ-resistant), 72 h, pLDH, IC50 expressed in µM

SMILES | IC50 [1, 6] | IC50 ([1]; D10 (CQ-sensitive), 72 h, pLDH) | SI D10 [1] | IC50 [2, 7] | IC50 ([2]; W2 (CQ-resistant), 72 h, pLDH) | RI [2] | SI W2 [2] | IC50 (HaCaT cells) | IC50 (HaCaT cells; IC50 expressed in µM) | other results
O=C1NC2(CCc3ccccc32)C(=O)N1CCCCCN1CCN(c2nc3ccccc3[nH]2)CC1 (racemic) [(6), (R,S)-1-(5-(4-(1H-Benzo[d]imidazol-2-yl)piperazin-1-yl)pentyl)-2′,3′-dihydrospiro[imidazolidine-4,1′-indene]-2,5-dione] | 17.5 ± 1.55 µM | 8.27 ± 0.737 µg/mL | 3.31 | 10.1 ± 0.2 µM | 4.78 ± 0.0974 µg/mL | 0.58 | 5.73 | 27.4 µg/mL | 58 ± 1.48 µM | 
CN1C(=N)N(C)/C(=C/c2c[nH]c3ccccc23)C1=O [Aplysinopsin] |  |  |  |  |  |  |  |  |  | IC50 against FcM29-Cameroon [3]: 0.43 µg/mL (≈ 1.69 µM); IC50 ([3]; read-out: IC50 against FcM29-Cameroon): 1.69 µM
CCN(CC)CCCC(C)Nc1ccnc2cc(Cl)ccc12 (stereo not shown) [CQ, Chloroquine, reference compound] |  |  |  |  |  |  |  |  |  | IC50 ([1]; D10, 72 h): 0.00764 µg/mL and 10 nM; IC50 ([2]; W2, 72 h): 0.103 µg/mL and 200 nM
O=C1NC2(CCCc3ccccc32)C(=O)N1CCCCCN1CCN(c2nc3ccccc3[nH]2)CC1 (racemic) [Compound (5), (R,S)-1-(5-(4-(1H-Benzo[d]imidazol-2-yl)piperazin-1-yl)pentyl)-3′,4′-dihydro-2′H-spiro[imidazolidine-4,1′-naphthalene]-2,5-dione] | 12.75 ± 0.02 µM | 6.2 ± 0.892 µg/mL | 3.26 | 4.98 ± 0.52 µM | 2.42 ± 0.255 µg/mL | 0.39 | 8.34 | 20.2 µg/mL | 41.6 ± 2.43 µM | hemolysis at 30 min, 20 µg/mL (Hemolysis assay): 5.6%; solubility in water (Solubility in water): low solubility in water
CCN1C(=O)N(CCC(C)C)C2(CCN(Cc3cc(Cl)ccc3O)CC2)C1=O [CWHM-123, 8-(5-chloro-2-hydroxybenzyl)-3-ethyl-1-isopentyl-1,3,8-triazaspiro[4.5]decane-2,4-dione] |  |  |  |  |  |  |  |  |  | IC50 [4]: 0.31 µM; potency on the chloroquine-resistant Dd2 strain [5]: equivalent potency
O=C1NC2(CCc3ccccc32)C(=O)N1CCCCCN1CCN(C2Cc3ccccc3C2)CC1 (racemic) [(8), (R,S)-1-(5-(4-(2,3-Dihydro-1H-inden-2-yl)piperazin-1-yl)pentyl)-2′,3′-dihydrospiro[imidazolidine-4,1′-indene]-2,5-dione] |  | > 10 µg/mL |  | 12 ± 4.12 µM | 5.65 ± 1.95 µg/mL |  | 4.02 | 22.7 µg/mL | 48.1 ± 2.49 µM | 
O=C1NC2(CCCc3ccccc32)C(=O)N1CCCCCN1CCN(C2Cc3ccccc3C2)CC1 (racemic) [(7), (R,S)-1-(5-(4-(2,3-Dihydro-1H-inden-2-yl)piperazin-1-yl)pentyl)-3′,4′-dihydro-2′H-spiro[imidazolidine-4,1′-naphthalene]-2,5-dione] | 19.9 ± 0.29 µM | 9.66 ± 0.141 µg/mL | 3.16 | 8.93 ± 1.35 µM | 4.35 ± 0.659 µg/mL | 0.45 | 7.02 | 30.5 µg/mL | 62.8 ± 2.12 µM | 
CCN1C(=O)N(CCC(C)C)C2(CCN(Cc3cc(Cl)c(Cl)cc3O)CC2)C1=O [CWHM-505] |  |  |  |  |  |  |  |  |  | IC50 [4]: 0.099 µM
CC(C)C1C(=O)C(=O)N/C1=N/C(=N)Nc1ccc(Cl)c(Cl)c1 (stereo not shown) [WR182393] |  |  |  |  |  |  |  |  |  | IC50 for W2 (W2 strain): 2.66469 µg/mL

— paper PMC7823712, “Synthesis and Antiplasmodial Activity of Novel Bioinspired Imidazolidinedione Derivatives” (Biomolecules, 2020)
